Some test systems named below: SK-MEL-5 melanoma; NCI-H522 lung; TK-10 renal; OVCAR-4 ovarian; T-47D breast; HS 578T breast; ACHN renal; EKVX NSCLC; SNB-19 CNS; RXF 393 renal; HOP-62 NSCLC; MOLT-4 leukemia; PC-3 prostate; MCF7 breast; U251 CNS; SF-295 CNS; KM12 colon; OVCAR-8 ovarian.
Experiment in all cases: growth of human tumour cells (NCI), 48 h

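Five concentrations, 48 hours, 96-well plates. TGI denotes the concentration required for complete inhibition of growth.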

For the molecule `CSC1=C(C#N)C(=O)N(c2ccc(Cl)cc2)C(=O)C1C#N` (configuration not stated), the TGI in the experiment with SK-MEL-5 melanoma, with NCI-H522 lung, in the experiment on TK-10 renal, in the experiment with OVCAR-4 ovarian, in the experiment on T-47D breast and in the experiment on HS 578T breast was > 100 µM throughout. Moreover, the TGI with ACHN renal, in the experiment on EKVX NSCLC, with SNB-19 CNS, in the experiment with RXF 393 renal, with HOP-62 NSCLC and in the experiment with MOLT-4 leukemia was > 100 µM throughout. In addition, the TGI in the experiment on PC-3 prostate, in the experiment with MCF7 breast, in the experiment with U251 CNS and with SF-295 CNS was > 100 µM each time.

Regarding `Cc1cc(C)c(S(=O)(=O)N(CCCCCCN)OCCCN)c(C)c1`, the TGI amounted to 37.6 µM in the experiment on SK-MEL-5 melanoma; 27.3 µM with NCI-H522 lung; 32.1 µM in the experiment with KM12 colon; 29.4 µM in the experiment on TK-10 renal; 46.2 µM in the experiment on OVCAR-4 ovarian; 37.4 µM in the experiment on T-47D breast. Also, the TGI in the experiment with OVCAR-8 ovarian was determined as 27.9 µM; in the experiment with HS 578T breast it was 30.2 µM; in the experiment with ACHN renal, 30.9 µM; in the experiment with EKVX NSCLC it was 29.9 µM; with SNB-19 CNS, 38.2 µM; in the experiment on HOP-62 NSCLC it was 46 µM. In addition, the TGI in the experiment with MOLT-4 leukemia worked out at 34.4 µM; in the experiment with PC-3 prostate, 28.1 µM; with MCF7 breast, 37.3 µM; in the experiment with U251 CNS it was 32.6 µM; in the experiment with SF-295 CNS it was 34.8 µM.

`CN(C(=O)[C@@H](NC(=O)OC(C)(C)C)c1ccccc1)[C@H]1CCCC[C@@H]1N1CCCC1`: the TGI in the experiment on SK-MEL-5 melanoma, in the experiment with NCI-H522 lung, with KM12 colon, in the experiment on TK-10 renal, with OVCAR-4 ovarian and with T-47D breast was > 100 µM each time. Moreover, the TGI in the experiment on OVCAR-8 ovarian, in the experiment with HS 578T breast, in the experiment with ACHN renal, in the experiment on EKVX NSCLC, with SNB-19 CNS and with HOP-62 NSCLC was > 100 µM throughout. Further, the TGI in the experiment on MOLT-4 leukemia, in the experiment with PC-3 prostate, with MCF7 breast, in the experiment on U251 CNS and in the experiment with SF-295 CNS was > 100 µM each time.

For `CCN(CC)CCOc1ccc(N2Cc3ccccc3C2=O)cc1`, the TGI with SK-MEL-5 melanoma, with NCI-H522 lung, in the experiment on TK-10 renal, in the experiment with OVCAR-4 ovarian, in the experiment with T-47D breast and with OVCAR-8 ovarian was > 10 µM in each case. For the same molecule, the TGI in the experiment on HS 578T breast, in the experiment with ACHN renal, in the experiment with EKVX NSCLC, with SNB-19 CNS, in the experiment with RXF 393 renal and with HOP-62 NSCLC was > 10 µM each time. Further, the TGI with MOLT-4 leukemia, with PC-3 prostate, in the experiment on MCF7 breast, in the experiment with U251 CNS and in the experiment on SF-295 CNS was > 10 µM each time.

With `CCCCC1C(=O)N(c2ccc(S(=O)(=O)Nc3ccccn3)cc2)N(c2ccc(O)c(C(=O)O)c2)C1=O` (configuration not stated), the TGI in the experiment on SK-MEL-5 melanoma, in the experiment with NCI-H522 lung, in the experiment on KM12 colon, in the experiment on OVCAR-4 ovarian, with T-47D breast and with OVCAR-8 ovarian was > 100 µM throughout. Besides, the TGI in the experiment with HS 578T breast, in the experiment with ACHN renal, in the experiment on EKVX NSCLC, in the experiment on SNB-19 CNS, in the experiment on RXF 393 renal and in the experiment with MOLT-4 leukemia was > 100 µM in each case. Besides, the TGI with PC-3 prostate, in the experiment on MCF7 breast, with U251 CNS and in the experiment on SF-295 CNS was > 100 µM each time.

`O=c1oc2ccccc2cc1-c1csc(Nc2cc(Cl)cc(Cl)c2)n1`: the TGI in the experiment on SK-MEL-5 melanoma is > 100 µM; in the experiment with NCI-H522 lung it was 96.6 µM; in the experiment on KM12 colon, > 58.6 µM; with TK-10 renal it was 85.2 µM; in the experiment with T-47D breast it was > 100 µM; with OVCAR-8 ovarian it was > 52 µM. The TGI in the experiment with HS 578T breast is 98.1 µM; with ACHN renal, 4.38 µM; in the experiment on EKVX NSCLC, > 100 µM; in the experiment on SNB-19 CNS it was > 52.8 µM; in the experiment on RXF 393 renal it was 14.6 µM; with HOP-62 NSCLC it was 17.9 µM. Also, the TGI is > 100 µM in the experiment with MOLT-4 leukemia; > 100 µM in the experiment on PC-3 prostate; 61.4 µM in the experiment on MCF7 breast; 11.7 µM in the experiment with U251 CNS; > 44.5 µM with SF-295 CNS.

For `N#C/C(=C\c1ccc(F)cc1)c1nc2ccccc2c(=O)[nH]1`, the TGI in the experiment with NCI-H522 lung, in the experiment on KM12 colon, in the experiment with TK-10 renal, with OVCAR-4 ovarian, with T-47D breast and with OVCAR-8 ovarian was > 100 µM in each case. Further, the TGI with HS 578T breast, in the experiment with ACHN renal, with EKVX NSCLC, with SNB-19 CNS, in the experiment with RXF 393 renal and in the experiment on HOP-62 NSCLC was > 100 µM throughout. The TGI in the experiment on MOLT-4 leukemia, in the experiment on PC-3 prostate, in the experiment on MCF7 breast, with U251 CNS and in the experiment with SF-295 CNS was > 100 µM throughout.

As to `OC1CSCCCSCCSCCCSC1`, the TGI in the experiment on SK-MEL-5 melanoma, in the experiment on NCI-H522 lung, in the experiment with TK-10 renal, in the experiment with OVCAR-4 ovarian, in the experiment on T-47D breast and with OVCAR-8 ovarian was > 100 µM each time. For the same molecule, the TGI in the experiment on HS 578T breast, in the experiment with ACHN renal, in the experiment with EKVX NSCLC, with SNB-19 CNS, in the experiment on RXF 393 renal and with HOP-62 NSCLC was > 100 µM throughout. Moreover, the TGI in the experiment with MOLT-4 leukemia, with PC-3 prostate, with MCF7 breast, in the experiment with U251 CNS and with SF-295 CNS was > 100 µM in each case.

On to `CCc1cccc(CC)c1Nc1nc2c(s1)C(=O)c1ccccc1C2=O`, for which the TGI in the experiment on SK-MEL-5 melanoma was 47.9 µM; with NCI-H522 lung, 83.3 µM; in the experiment with KM12 colon, 41 µM; in the experiment on TK-10 renal it was 36.6 µM; in the experiment on T-47D breast, > 100 µM; in the experiment on HS 578T breast it was 71.4 µM. The TGI with ACHN renal is 32 µM; with EKVX NSCLC, 36.1 µM; in the experiment with SNB-19 CNS it was 31.9 µM; in the experiment on RXF 393 renal it was 40.3 µM; in the experiment with HOP-62 NSCLC, 30.2 µM; in the experiment on MOLT-4 leukemia, > 100 µM. Also, the TGI in the experiment with PC-3 prostate is 30.2 µM; in the experiment with MCF7 breast, 52 µM; in the experiment on U251 CNS, 29.8 µM; in the experiment with SF-295 CNS, 27.8 µM.

`O=C1N[C@H]2C(=O)c3c(Cl)sc(Cl)c3[C@H]2O1`: the TGI was 35 µM with SK-MEL-5 melanoma; 8.83 µM in the experiment with NCI-H522 lung; 44.2 µM in the experiment on KM12 colon; 70.8 µM with TK-10 renal; 29.2 µM in the experiment with T-47D breast; 7.74 µM in the experiment on OVCAR-8 ovarian. Also, the TGI was determined as 67.1 µM in the experiment on HS 578T breast; 21 µM in the experiment on ACHN renal; 3.85 µM with EKVX NSCLC; 29.9 µM with SNB-19 CNS; 9.31 µM in the experiment on RXF 393 renal; 34.5 µM with HOP-62 NSCLC. In addition, the TGI in the experiment on MOLT-4 leukemia was determined as 8.22 µM; in the experiment with PC-3 prostate, 31 µM; in the experiment with MCF7 breast, 52.5 µM; with U251 CNS, 11.6 µM; in the experiment on SF-295 CNS, 32.1 µM.

Consider `c1cc2[nH]snc2c2cncc12`, for which the TGI with SK-MEL-5 melanoma, with NCI-H522 lung, in the experiment on KM12 colon, in the experiment with TK-10 renal, in the experiment with OVCAR-4 ovarian and in the experiment with T-47D breast was > 100 µM each time. The TGI in the experiment with OVCAR-8 ovarian, with HS 578T breast, in the experiment on ACHN renal, in the experiment with EKVX NSCLC, with RXF 393 renal and with HOP-62 NSCLC was > 100 µM throughout. For the same molecule, the TGI in the experiment with MOLT-4 leukemia, in the experiment on PC-3 prostate, with MCF7 breast and in the experiment with SF-295 CNS was > 100 µM in each case.

Take `CC(=O)/C=C(/C=N/O)c1ccccc1`: the TGI with SK-MEL-5 melanoma, in the experiment on NCI-H522 lung, in the experiment with KM12 colon, in the experiment with TK-10 renal, in the experiment with OVCAR-4 ovarian and in the experiment with T-47D breast was > 100 µM each time. Also, the TGI in the experiment on OVCAR-8 ovarian, in the experiment on HS 578T breast, in the experiment on ACHN renal, in the experiment with EKVX NSCLC, in the experiment on SNB-19 CNS and in the experiment on HOP-62 NSCLC was > 100 µM each time. Also, the TGI with MOLT-4 leukemia, in the experiment on PC-3 prostate, with MCF7 breast, in the experiment with U251 CNS and in the experiment on SF-295 CNS was > 100 µM in each case.

As for `CS(=O)(=O)N1CC(CCl)c2ccc(NCCN)cc21` (configuration not stated), the TGI in the experiment on SK-MEL-5 melanoma, in the experiment with NCI-H522 lung, in the experiment with KM12 colon, with TK-10 renal, with OVCAR-4 ovarian and in the experiment on T-47D breast was > 100 µM in each case. The TGI in the experiment on OVCAR-8 ovarian, in the experiment with HS 578T breast, in the experiment on ACHN renal, with EKVX NSCLC, in the experiment with SNB-19 CNS and in the experiment on RXF 393 renal was > 100 µM each time. Further, the TGI with HOP-62 NSCLC is 32.1 µM; with MOLT-4 leukemia it was > 100 µM; in the experiment with PC-3 prostate, > 100 µM; in the experiment with MCF7 breast, > 100 µM; in the experiment with U251 CNS, > 100 µM.
